How the values were obtained:
RhoC [1] = target: T1, RhoC (Homo sapiens, UniProt P08134); assay: Titration of .NO2-treated RhoC-6-TGDP complex with [3H]GDP with/without DTT (FIG. 16D); assay type: binding; set-up: made in house; host or cells: E. coli; conditions: presence of DTT; .NO2-pretreated 6-TGDP-loaded RhoC; read-out: appKD for [3H]GDP
Description: FIG. 16. Kinetic properties of RhoC with 6-TGDP in the presence or absence of a redox agent. All kinetic analyses are described elsewhere herein. (A) ^appKD values of Rac1, RhoA, RhoC, and RhoC C20S for 6-TGDP were estimated to be 7.9, 11.6, 11.8, and 11.2 μM, respectively. ^trueKD values of Rac1, RhoA, and RhoC for 6-TGDP were then calculated to be 5.1, 10.8, 11.1, and 10.5 μM, respectively, by using a compensation equation, ^trueKD for 6-TGDP=^appKD for 6-TGDP/(1+[[^3H]GDP]/^trueKD for GDP) (Heo, J., and Hong, I. (2010) Biochemistry 49, 3965-3976), in conjunction with the values given. […] The GDP dissociation rates from RhoC C20S by NO, .NO2, and N2O3 were estimated to be 0.02×10^−3, 0.05×10^−3, and 0.04×10^−3 s^−1, respectively. […] (D) ^appKD values of RhoC for [^3H]GDP in the presence or absence of DTT were estimated to be 22.4 μM and […], respectively. ^appKD values of C20S RhoC for [^3H]GDP in the presence or absence of DTT were determined to be 24.8 μM and 25.2 μM, respectively. The regression values associated with these fits were >0.8595. […]
(d) The effect of .NO2 on the dissociation of 6-TGDP from RhoC was determined by treating the RhoC-6-TGDP complex titration with various concentrations of [^3H]GDP in the presence and absence of a reducing agent of either dithiothreitol (DTT) or β-mercaptoethanol. […]

RhoA = target: T2, RhoA (Homo sapiens, UniProt P61586); conditions: known value (Morgan et al.); read-out: trueKD for GDP; cited from earlier work
T2 construct: made in house; host or cells: E. coli
T2 sequence (P61586 whole entry, species assumed): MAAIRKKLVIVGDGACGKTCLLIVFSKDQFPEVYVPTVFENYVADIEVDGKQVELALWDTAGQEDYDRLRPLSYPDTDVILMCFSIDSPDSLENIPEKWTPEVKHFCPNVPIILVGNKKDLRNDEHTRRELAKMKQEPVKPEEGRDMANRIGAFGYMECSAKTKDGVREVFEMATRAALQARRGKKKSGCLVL

RhoC [2] = target: T1, RhoC; assay: RhoC expression (Western) and RhoC activity assay in cells; assay type: cell-based; set-up: endogenous in cells; host or cells: SUM149, SUM102, SW480, HCCLM3 (endogenous); HME-RhoC (transfected with wild type RhoC)
Description: (§1) FIG. 14. Determination of cell invasiveness in the presence and absence of thiopurines and/or redox agents. […] Western blot analysis representing the total expression of RhoC in these cells also is shown. (B) Experimental procedures for the determination of the time-dependent motility of cells using the QCM Cell Invasion Assay kit in the presence and absence of 6-TG and DETA/NO are described elsewhere herein.
(§2) Cells were lysed in an extraction buffer containing 50 mM NaCl, 5 mM MgCl2, 1 mM ethylenediaminetetraacetic acid (EDTA), 0.1 mM diethylenetriaminepentaacetic acid (DTPA), and 0.1% NP40 in 150 mM TrisHCl (pH 8.0). The content of […] RhoC in cells then was determined by using Western analysis that relies on a monoclonal anti-RhoC antibody (Biocompare, South San Francisco, Calif.). To determine RhoC activity, the colorimetric RhoA activation assay Biochem Kit (Cytoskeleton, Denver, Colo.) was used essentially as described in the previous study (Hall et al. Neoplasia 10, 797-803 (2008)) except that the RhoC specific antibody (vide supra), instead of the RhoA antibody included in the assay kit, was used for this analysis.

RhoC C20S = RhoC C20S (Homo sapiens, UniProt P08134, C20S); assay: as above; assay type: cell-based; set-up: expressed in transfected cells; host or cells: human mammary epithelial (HME) cells; conditions: HME-C20S RhoC cells, 6-TG three days
Chain of RhoC C20S (P08134 whole entry C20S): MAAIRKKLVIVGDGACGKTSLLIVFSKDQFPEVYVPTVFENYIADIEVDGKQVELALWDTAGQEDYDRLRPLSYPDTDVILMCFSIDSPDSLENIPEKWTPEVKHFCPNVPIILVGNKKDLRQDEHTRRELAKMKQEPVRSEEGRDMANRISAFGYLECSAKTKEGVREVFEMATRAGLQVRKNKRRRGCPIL
Description: as §1, §2

T1 sequence (P08134 whole entry): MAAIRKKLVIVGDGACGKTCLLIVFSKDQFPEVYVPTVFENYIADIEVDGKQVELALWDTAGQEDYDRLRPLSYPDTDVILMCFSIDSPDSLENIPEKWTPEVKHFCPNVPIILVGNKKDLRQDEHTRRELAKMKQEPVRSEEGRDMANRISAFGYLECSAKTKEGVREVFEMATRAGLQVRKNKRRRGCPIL

| level of total RhoC expression (RhoC [2]; SUM149 and HME-RhoC cells, 6-TG three or more days) | activity of RhoC (RhoC [2]; SW480 and HCCLM3 cells, 6-TG and a NO donor, not shown) | activity and total expression of RhoC C20S (RhoC C20S) | Compound | Kd (RhoC [1]) [µM] | Kd (RhoA) [µM] | RhoC activity (RhoC [2]; SUM149 and HME-RhoC cells, both 6-TG and DETA/NO (or GSNO), three days) |
| --- | --- | --- | --- | --- | --- | --- |
|  |  |  | Nc1nc2c(ncn2[C@@H]2O[C@H](COP(=O)(O)OP(=O)(O)O)[C@@H](O)[C@H]2O)c(=O)[nH]1 [GDP] | 22.4 | 13 |  |
| not changed | drastically diminished | unchanged | Nc1nc2nc[nH]c2c(=S)[nH]1 [6-TG, 6-thioguanine] |  |  | essentially no RhoC activity was detected |
